Data published in US20240041877A1, “DOSAGE REGIME AND METHOD FOR TREATING PULMONARY ARTERIAL HYPERTENSION” (Altavant Sciences GmbH, priority 2019, published 2024).

How the values were obtained:
[1] = Cardiac conduction (QTcF) in healthy adult subjects; format: in vivo, human
[2] = Study KAR5585-101 Part 1 (SAD): plasma pharmacokinetics after a single oral dose of KAR5585, fasting and fed (incl. dose proportionality and food effect); settings: for half-life / AUC(0-t) / AUC / AUC(0-inf) / concentration at 12 h / Cmax / Tmax: human, po; for AUC: AUC0-tau; for AUC(0-inf): AUC0-∞; for Tmax: Median
Experimental: Food effect was to be evaluated in Part 1, Period 2. Part 2 was permitted to begin before Part 1 was completed and, in each part, the data from each dose Cohort were to be reviewed for safety before the next dose Cohort was enrolled.
Part 1 had 6 Cohorts of 12 subjects each (for a total of 72 subjects) and Part 2 had 4 Cohorts of 12 subjects each (for a total of 48 subjects). In Part 1, the 12 subjects in Cohort 3 (400 mg)were studied twice, once under fasting conditions (Period 1) and once under fed conditions (Period 2) for food-effect assessment.
Pharmacokinetic data were to be summarized descriptively.

[3] = 100 mg to 700 mg dose (7-fold increase in dose), fasting
[4] = 400 mg KAR5585, Cohort 3B (test) vs 3A (reference)
[5] = 400 mg KAR5585 single dose, Cohorts 3B vs 3A
[6] = 700 mg to 2000 mg (2.86-fold increase in dose), fasting
[7] = 100 to 2000 mg KAR5585 single oral dose, fasting, plasma analyte = label
[8] = KAR5417 after 100 mg KAR5585 single oral, fasted, Cohort 1, Geo. Mean
[9] = KAR5417 after 100 mg KAR5585 single oral, fasted, Cohort 1, Mean
[10] = KAR5417 after 200 mg KAR5585 single oral, fasted, Cohort 2, Geo. Mean
[11] = KAR5417 after 200 mg KAR5585 single oral, fasted, Cohort 2, Mean
[12] = KAR5417 after 400 mg KAR5585 single oral, fasted, Cohort 3A, Geo. Mean
[13] = KAR5417 after 400 mg KAR5585 single oral, fasted, Cohort 3A, Mean
[14] = KAR5417 after 400 mg KAR5585 single oral, fed, Cohort 3B, Geo. Mean
[15] = KAR5417 after 400 mg KAR5585 single oral, fed, Cohort 3B, Mean
[16] = KAR5417 after 700 mg KAR5585 single oral, fasted, Cohort 4, Geo. Mean
[17] = KAR5417 after 700 mg KAR5585 single oral, fasted, Cohort 4, Mean
[18] = KAR5417 after 1200 mg KAR5585 single oral, fasted, Cohort 5, Geo. Mean
[19] = KAR5417 after 1200 mg KAR5585 single oral, fasted, Cohort 5, Mean
[20] = KAR5417 after 2000 mg KAR5585 single oral, fasted, Cohort 6, Geo. Mean
[21] = KAR5417 after 2000 mg KAR5585 single oral, fasted, Cohort 6, Mean
[22] = plasma, 100 mg, KAR5417 after 100 mg KAR5585 single oral, fasted, Cohort 1, Geo. Mean
[23] = plasma, 100 mg, KAR5417 after 100 mg KAR5585 single oral, fasted, Cohort 1, Mean
[24] = plasma, 200 mg, KAR5417 after 200 mg KAR5585 single oral, fasted, Cohort 2, Geo. Mean
[25] = plasma, 200 mg, KAR5417 after 200 mg KAR5585 single oral, fasted, Cohort 2, Mean

Structure (SMILES): Nc1nc(O[C@H](c2ccc(Cl)cc2-c2ccccc2)C(F)(F)F)cc(N2CCC3(CC2)CN[C@H](C(=O)O)C3)n1 [KAR5417, (S)-8-(2-amino-6-((R)-1-(5-chloro-[1,1T-biphenyl]-2-yl)-2,2,2-trifluoroeth-oxy)pyrimidin-4-yl)-2,8-diazaspiro[4.5]decane-3-carboxylic acid]
- tendency to increase QTcF in a dose-dependent manner [1]: Neither the prodrug (KAR5585) nor the active drug (KAR5417) showed any tendency to increase QTcF in a dose-dependent manner
- fold increase in mean AUC0-24 [2, 3]: 6.3 fold
- fold increase in mean AUC0-inf [2, 3]: 6.8 fold
- fold increase in mean Cmax [2, 3]: 7.27 fold
- AUC0-inf, Geometric LS Mean Ratio (fed/fasting) [2, 4]: 2.02
- AUC0-tau, Geometric LS Mean Ratio (fed/fasting) [2, 4]: 2.04
- exposure as assessed by AUC0-tau and AUC0-inf, fed relative to fasting ([2]; 400 mg KAR5585 single dose): approximately 2 fold
- fold increase in Cmax, fed vs fasting [2, 5]: 1.8 fold
- fold increase in mean AUC0-inf, fed vs fasting [2, 5]: 1.8 fold
- peak mean concentration under fed relative to fasting conditions, % higher [2, 5]: approximately 177%
- fold increase in AUC0-24 [2, 6]: 1.7 fold
- fold increase in AUC0-inf [2, 6]: 1.81 fold
- fold increase in Cmax [2, 6]: 1.38 fold
- Dose proportionality power model, AUC0-12: Intercept estimate [2, 7]: 14.5
- Dose proportionality power model, AUC0-inf: Intercept estimate [2, 7]: 12.3
- Dose proportionality power model, AUC0-tau: Intercept estimate [2, 7]: 6.54
- Dose proportionality power model, Cmax: Intercept estimate [2, 7]: 1.95
- AUC0-24/D [2, 8]: 8.16 (hr*ng/mL)/mg
- Cmax/D [2, 8]: 0.931 (ng/ml)/mg
- AUC0-24/D [2, 9]: 8.47 (hr*ng/mL)/mg
- Cmax/D [2, 9]: 1.07 (ng/ml)/mg
- t1/2 [2, 9]: 4.67 h
- AUC0-24/D [2, 10]: 4.70 (hr*ng/mL)/mg
- Cmax/D [2, 10]: 0.658 (ng/ml)/mg
- AUC0-24/D [2, 11]: 5.81 (hr*ng/mL)/mg
- Cmax/D [2, 11]: 0.801 (ng/ml)/mg
- AUC0-24/D [2, 12]: 7.43 (hr*ng/mL)/mg
- Cmax/D [2, 12]: 1.11 (ng/ml)/mg
- AUC0-24/D [2, 13]: 8.12 (hr*ng/mL)/mg
- Cmax/D [2, 13]: 1.21 (ng/ml)/mg
- AUC0-24/D [2, 14]: 13.4 (hr*ng/mL)/mg
- Cmax/D [2, 14]: 2.08 (ng/ml)/mg
- AUC0-24/D [2, 15]: 13.6 (hr*ng/mL)/mg
- Cmax/D [2, 15]: 2.15 (ng/ml)/mg
- AUC0-24/D [2, 16]: 5.31 (hr*ng/mL)/mg
- Cmax/D [2, 16]: 0.777 (ng/ml)/mg
- AUC0-24/D [2, 17]: 7.58 (hr*ng/mL)/mg
- Cmax/D [2, 17]: 1.11 (ng/ml)/mg
- AUC0-24/D [2, 18]: 4.84 (hr*ng/mL)/mg
- Cmax/D [2, 18]: 0.636 (ng/ml)/mg
- AUC0-24/D [2, 19]: 5.66 (hr*ng/mL)/mg
- Cmax/D [2, 19]: 0.747 (ng/ml)/mg
- AUC0-24/D [2, 20]: 4.26 (hr*ng/mL)/mg
- Cmax/D [2, 20]: 0.515 (ng/ml)/mg
- AUC0-24/D [2, 21]: 4.54 (hr*ng/mL)/mg
- Cmax/D [2, 21]: 0.542 (ng/ml)/mg
- half-life ([2]; in vivo, 700 mg): 726 min
- AUC(0-t) ([2]; plasma, 100 mg, AUC0-12, KAR5417 after 100 mg KAR5585 single oral, fasted, Cohort 1, Geo. Mean): 686 ng·h/mL
- AUC(0-t) ([2]; plasma, 100 mg, AUC0-12, KAR5417 after 100 mg KAR5585 single oral, fasted, Cohort 1, Mean): 704 ng·h/mL
- AUC(0-t) ([2]; plasma, 100 mg, AUC0-24, KAR5417 after 100 mg KAR5585 single oral, fasted, Cohort 1, Geo. Mean): 816 ng·h/mL
- AUC(0-t) ([2]; plasma, 100 mg, AUC0-24, KAR5417 after 100 mg KAR5585 single oral, fasted, Cohort 1, Mean): 847 ng·h/mL
- AUC [2, 22]: 605 ng·h/mL
- AUC [2, 23]: 718 ng·h/mL
- AUC(0-inf) [2, 22]: 847 ng·h/mL
- AUC(0-inf) [2, 23]: 886 ng·h/mL
- concentration at 12 h ([2]; plasma, 100 mg, C12, KAR5417 after 100 mg KAR5585 single oral, fasted, Cohort 1, Geo. Mean): 22.5 ng/mL
- concentration at 12 h ([2]; plasma, 100 mg, C12, KAR5417 after 100 mg KAR5585 single oral, fasted, Cohort 1, Mean): 23.8 ng/mL
- Cmax [2, 22]: 93.1 ng/mL
- Cmax [2, 23]: 107 ng/mL
- AUC(0-t) ([2]; plasma, 100 mg, Plasma AUC0-96, KAR5417 in plasma, 100 mg KAR5585 single oral dose, mean): 889 ng·h/mL
- half-life ([2]; plasma, 100 mg, t1/2, KAR5417 after 100 mg KAR5585 single oral, fasted, Cohort 1, Geo. Mean): 271 min
- half-life ([2]; plasma, 100 mg, t1/2, KAR5417 after 100 mg KAR5585 single oral, fasted, Cohort 1, Mean): 282 min
- Tmax ([2]; plasma, 100 mg, KAR5417 after 100 mg KAR5585 single oral, fasted, Cohort 1): 4 h
- AUC(0-t) ([2]; plasma, 200 mg, AUC0-12, KAR5417 after 200 mg KAR5585 single oral, fasted, Cohort 2, Geo. Mean): 771 ng·h/mL
- AUC(0-t) ([2]; plasma, 200 mg, AUC0-12, KAR5417 after 200 mg KAR5585 single oral, fasted, Cohort 2, Mean): 947 ng·h/mL
- AUC(0-t) ([2]; plasma, 200 mg, AUC0-24, KAR5417 after 200 mg KAR5585 single oral, fasted, Cohort 2, Geo. Mean): 940 ng·h/mL
- AUC(0-t) ([2]; plasma, 200 mg, AUC0-24, KAR5417 after 200 mg KAR5585 single oral, fasted, Cohort 2, Mean): 1160 ng·h/mL
- AUC [2, 24]: 866 ng·h/mL
- AUC [2, 25]: 1120 ng·h/mL
- AUC(0-inf) [2, 24]: 988 ng·h/mL
- AUC(0-inf) [2, 25]: 1230 ng·h/mL
- concentration at 12 h ([2]; plasma, 200 mg, C12, KAR5417 after 200 mg KAR5585 single oral, fasted, Cohort 2, Geo. Mean): 27.3 ng/mL
- concentration at 12 h ([2]; plasma, 200 mg, C12, KAR5417 after 200 mg KAR5585 single oral, fasted, Cohort 2, Mean): 32.9 ng/mL
- Cmax [2, 24]: 132 ng/mL
- Cmax [2, 25]: 160 ng/mL
- AUC(0-t) ([2]; plasma, 200 mg, Plasma AUC0-96, KAR5417 in plasma, 200 mg KAR5585 single oral dose, mean): 1240 ng·h/mL
- half-life ([2]; plasma, 200 mg, t1/2, KAR5417 after 200 mg KAR5585 single oral, fasted, Cohort 2, Geo. Mean): 317 min
- half-life ([2]; plasma, 200 mg, t1/2, KAR5417 after 200 mg KAR5585 single oral, fasted, Cohort 2, Mean): 324 min
- Tmax ([2]; plasma, 200 mg, KAR5417 after 200 mg KAR5585 single oral, fasted, Cohort 2): 3 h
- AUC(0-t) ([2]; plasma, 400 mg, AUC0-12, KAR5417 after 400 mg KAR5585 single oral, fasted, Cohort 3A, Geo. Mean): 2460 ng·h/mL
- AUC(0-t) ([2]; plasma, 400 mg, AUC0-12, KAR5417 after 400 mg KAR5585 single oral, fasted, Cohort 3A, Mean): 2690 ng·h/mL
- AUC(0-t) ([2]; plasma, 400 mg, AUC0-12, KAR5417 after 400 mg KAR5585 single oral, fed, Cohort 3B, Geo. Mean): 4170 ng·h/mL
- AUC(0-t) ([2]; plasma, 400 mg, AUC0-12, KAR5417 after 400 mg KAR5585 single oral, fed, Cohort 3B, Mean): 4240 ng·h/mL
- AUC(0-t) ([2]; plasma, 400 mg, AUC0-24, KAR5417 after 400 mg KAR5585 single oral, fasted, Cohort 3A, Geo. Mean): 2970 ng·h/mL
- AUC(0-t) ([2]; plasma, 400 mg, AUC0-24, KAR5417 after 400 mg KAR5585 single oral, fasted, Cohort 3A, Mean): 3250 ng·h/mL
- AUC(0-t) ([2]; plasma, 400 mg, AUC0-24, KAR5417 after 400 mg KAR5585 single oral, fed, Cohort 3B, Geo. Mean): 5370 ng·h/mL
- AUC(0-t) ([2]; plasma, 400 mg, AUC0-24, KAR5417 after 400 mg KAR5585 single oral, fed, Cohort 3B, Mean): 5430 ng·h/mL
